Converted amounts (≈) assume the structure as drawn. Read-outs that look alike come from different tables or passages of the source. Where a SMILES comes first, the peptide text is derived from it. Bridges are numbered along the chain shown (N, C = ends). [ ]: non-standard residue; d: D form. NMeR = CN[C@@H](CCCNC(=N)N)C(=O)O
How the values were obtained:
[1] = tested on: Escherichia coli; format: cell-based
[2] = tested on: human red blood cells; assay: Hemolysis assay against human red blood cells; settings: ≥10% hemolysis against human RBCs; 4% (v/v) hRBCs in PBS, 1.5 h at 37 °C, 405 nm; n = 3
[3] = tested on: human red blood cells; settings: cited from earlier work
Text: These motifs were chosen based on their ability to induce 81% (-D-Ala-NMeArg–) and 92% (-D-Val-NMeArg-) β-hairpin folded fractions within a 12-mer linear peptide in aqueous solution.[24]

[4] = tested on: Klebsiella pneumoniae; format: cell-based
[5] = tested on: Acinetobacter baumannii; format: cell-based
[6] = tested on: Staphylococcus aureus; assay: microbe, parasite or virus in culture; format: cell-based
[7] = tested on: Pseudomonas aeruginosa; format: cell-based
[8] = against E. coli, microbroth dilution, 5x10^5 cfu/mL, 20-24 h at 37 °C, turbidity 600 nm, n = 5, median

Row | Compound | MIC90 [1, 8] [µM] | MHC10 (μM), minimum hemolytic concentration [2] [µM] | also measured
1 | CC(C)[C@@H]1NC(=O)[C@H](CCCNC(=N)N)NC(=O)[C@H](Cc2ccccc2)NC(=O)[C@@H](NC(=O)[C@H](Cc2c[nH]c3ccccc23)NC(=O)[C@H](CCCNC(=N)N)NC(=O)[C@@H](N)CCCNC(=N)N)CSSC[C@@H](C(=O)N[C@@H](CCCNC(=N)N)C(N)=O)NC(=O)[C@H](CCCCN)NC(=O)[C@H](CCCNC(=N)N)NC(=O)[C@H](Cc2ccc(O)cc2)NC(=O)[C@@H]2CSSC[C@H](NC1=O)C(=O)N[C@@H](Cc1ccc(O)cc1)C(=O)N[C@H](C)C(=O)N(C)[C@@H](CCCNC(=N)N)C(=O)N[C@@H](Cc1ccccc1)C(=O)N2 [3a] (H-RRWCFRVCY[dA][NMeR]FCYRKCR-NH2; disulfide 4-17, 8-13) | 0.7 (≈ 1.74 µg/mL) | 12.5 | 
2 | CC(C)[C@@H]1NC(=O)[C@H](CCCNC(=N)N)NC(=O)[C@H](Cc2ccccc2)NC(=O)[C@@H](NC(=O)[C@H](Cc2c[nH]c3ccccc23)NC(=O)[C@H](CCCNC(=N)N)NC(=O)[C@@H](N)CCCNC(=N)N)CSSC[C@@H](C(=O)N[C@@H](CCCNC(=N)N)C(N)=O)NC(=O)[C@H](CCCCN)NC(=O)[C@H](CCCNC(=N)N)NC(=O)[C@H](Cc2ccc(O)cc2)NC(=O)[C@@H]2CSSC[C@H](NC1=O)C(=O)N[C@@H](Cc1ccc(O)cc1)C(=O)N[C@H](C(C)C)C(=O)N(C)[C@@H](CCCNC(=N)N)C(=O)N[C@@H](Cc1ccccc1)C(=O)N2 [3b] (H-RRWCFRVCY[dV][NMeR]FCYRKCR-NH2; disulfide 4-17, 8-13) | 0.9 (≈ 2.26 µg/mL) | 6.25 | 
3 | CC[C@H](C)[C@@H]1NC(=O)[C@H](CCCNC(=N)N)N(C)C(=O)[C@@H](C)NC(=O)[C@H](Cc2ccc(O)cc2)NC(=O)[C@@H]2CSSC[C@H](NC1=O)C(=O)N[C@@H](Cc1ccc(O)cc1)C(=O)N[C@@H](CCCNC(=N)N)C(=O)N[C@@H](CCCNC(=N)N)C(=O)N[C@H](C(=O)N[C@@H](CCCNC(=N)N)C(N)=O)CSSC[C@H](NC(=O)[C@H](Cc1c[nH]c3ccccc13)NC(=O)[C@@H](N)CCCCN)C(=O)N[C@@H](Cc1ccccc1)C(=O)N[C@@H](CCCNC(=N)N)C(=O)N[C@@H](C(C)C)C(=O)N2 [4a] (H-KWCFRVCY[dA][NMeR]ICYRRCR-NH2; disulfide 3-16, 7-12) | 0.3 (≈ 0.688 µg/mL) | 12.5 | 
4 | CC[C@H](C)[C@@H]1NC(=O)[C@H](CCCNC(=N)N)N(C)C(=O)[C@@H](C(C)C)NC(=O)[C@H](Cc2ccc(O)cc2)NC(=O)[C@@H]2CSSC[C@H](NC1=O)C(=O)N[C@@H](Cc1ccc(O)cc1)C(=O)N[C@@H](CCCNC(=N)N)C(=O)N[C@@H](CCCNC(=N)N)C(=O)N[C@H](C(=O)N[C@@H](CCCNC(=N)N)C(N)=O)CSSC[C@H](NC(=O)[C@H](Cc1c[nH]c3ccccc13)NC(=O)[C@@H](N)CCCCN)C(=O)N[C@@H](Cc1ccccc1)C(=O)N[C@@H](CCCNC(=N)N)C(=O)N[C@@H](C(C)C)C(=O)N2 [4b] (H-KWCFRVCY[dV][NMeR]ICYRRCR-NH2; disulfide 3-16, 7-12) | 0.2 (≈ 0.464 µg/mL) | 12.5 | 
5 | CC(C)[C@@H]1NC(=O)CNC(=O)[C@H](CCCNC(=N)N)NC(=O)[C@H](C(C)C)NC(=O)[C@H](CCCNC(=N)N)NC(=O)[C@H](C)NC(=O)[C@H](Cc2ccc(O)cc2)NC(=O)[C@H](C(C)C)NC(=O)[C@@H](NC(=O)[C@H](Cc2c[nH]c3ccccc23)NC(=O)[C@@H](N)CCCNC(=N)N)CSSC[C@@H](C(=O)N[C@@H](Cc2c[nH]c3ccccc23)C(=O)O)NC(=O)[C@H](CCCNC(=N)N)NC(=O)[C@H](CCCNC(=N)N)NC(=O)[C@H](Cc2ccc(O)cc2)NC(=O)[C@H](CCCNC(=N)N)NC1=O [compound 1, reference compound] (H-RWCVYARVRGVRYRRCW-OH; disulfide 3-16) |  |  | MIC90 [1]: 1.2 µM (≈ 2.74 µg/mL); MIC (μM) ec [1]: 1.2 µM (≈ 2.74 µg/mL); hemolysis (toxicity) [3]: no measurable hemolysis; MIC (μM) kp [4]: 0.8 µM (≈ 1.83 µg/mL); MIC (μM) ab [5]: 0.8 µM (≈ 1.83 µg/mL); MIC (μM) sa [6]: 1.6 µM (≈ 3.65 µg/mL); MIC (μM) pa [7]: 3.12 µM (≈ 7.13 µg/mL)
